Experimental findings from patent US20230391772A1, “METHODS AND COMPOSITIONS FOR TARGETED PROTEIN DEGRADATION” (Ranok Therapeutics (Hangzhou) Co. Ltd., priority 2020, published 2023) are described below.

For experiment [1], the target named is T1, KRAS(G12C) (Homo sapiens, UniProt P01116, G12C). Nature of the experiment: KRAS(G12C)/SOS1 homogeneous time-resolved fluorescence (HTRF) assay. Also noted: purchased Cisbio 63ADK000CB16PEG. The note with it: absence of GTP, 4° C. for 3 hr, read-out: KRAS (G12C) binding. Put shortly: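 Three-hour incubation at 4 °C of 3-fold compound dilutions (lowest 1.02 nM) with KRAS(G12C), SOS1 and detection reagents, GTP absent. Disruption of the KRAS(G12C)/SOS1 complex detected by time-resolved fluorescence.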
(In general: Time-resolved FRET reads energy transfer from a long-lived donor to a nearby acceptor.)

Experiment [2] deals with T1, KRAS(G12C). Nature of the experiment: KRAS(G12C) Western blot protein degradation assay in MIA PaCa-2 cells. The experiment is classed as cell-based. Also noted: host or cells: LU65A. The note with it: 48 hr; for inhibition at 0.1562 µM: 156.2 nM; for inhibition at 0.3125 µM: 312.5 nM; for inhibition at 0.625 µM: 625 nM; for inhibition at 1.25 µM: 1250 nM; for inhibition at 2.5 µM: 2500 nM; for inhibition at 5 µM: 5000 nM; for inhibition at 10 µM: 10,000 nM. (In general: In western blotting, separated proteins are transferred to a membrane and probed.)

The subject of experiment [3] is MIA PaCa-2 human pancreatic carcinoma. The experiment in a line: MIA PaCa-2 CCK-8 proliferation assay. The experiment is classed as cell-based. Particulars: Homo sapiens, MIA PaCa-2, 72 h, MIA PaCa-2 cells. The procedure, abridged: (§1)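 Compounds were tested as a 3-fold series from 20 μM down to 1.02 nM in CCK-8 absorbance assays. The lines used were NCI-H23 and NCI-H358, each with 1 KRAS(G12C) copy, and MIA PaCa-2 with 2 copies. Inhibition was derived relative to DMSO controls, with a no-cell blank subtracted.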

Experiment [4] has as its system NCI-H358 human non-small cell lung cancer. The experiment in a line: NCI-H358 CCK-8 proliferation assay. Particulars: NCI-H358 cells, 72 hr. The experiment is classed as cell-based. The procedure, abridged: as §1
On the technique in general: Tetrazolium assays rely on reduction of a dye to a coloured formazan, in cell work by metabolically active cells.

A further experiment concerns the target T2, HSP90a protein (Homo sapiens, UniProt P07900).
T2 construct: purchased BPS Bioscience 50298
The experiment in a line: HSP90α-binding fluorescent polarization (FP) assay, FITC-geldanamycin probe. The note with it: FP competition with FITC-geldanamycin, 5 nM, 120 min at 25° C. Here is the method: HSP90α-Binding Fluorescent Polarization (FP) Assay
Binding of test compounds to HSP90a protein was measured by fluorescent polarization (FP) using the HSP90a (N-terminal) Assay Kit (BPS Bioscience, #50298), following the manufacturer's instructions, except as noted. Fluorescently labeled HSP90-binding compounds, either the provided FITC-geldanamycin (5 nM final concentration) or RNK04010, a triazolone-based HSP90 binding small molecule labeled with BODIPY through a piperizine-phenyl linker (5 nM final concentration) were employed. A 2.5-fold serial dilution of each test compound ranging from 20 μM to 5.2 nM was assayed for binding to HSP90a. After the final step of adding HSP90a protein to each assay well, plates were mixed by brief shaking, incubated at 25° C. for 120 min for FITC-geldanamycin or 300 min for RNK04010, and fluorescence was measured using a PerkinElmer EnVision Plate Reader.

T1 sequence (P01116 1-188 isoform P01116-2 G12C): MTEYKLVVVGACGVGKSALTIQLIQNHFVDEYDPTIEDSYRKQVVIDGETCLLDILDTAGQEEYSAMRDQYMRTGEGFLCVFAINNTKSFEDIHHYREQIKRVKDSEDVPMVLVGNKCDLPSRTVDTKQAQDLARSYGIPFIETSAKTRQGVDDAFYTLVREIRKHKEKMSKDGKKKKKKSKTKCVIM

For the compound `C=CC(=O)N1CCN(c2nc(OC[C@@H]3CCCN3C(=O)C3CCN(Cc4ccc(-n5c(O)nnc5-c5cc(C(C)C)c(O)cc5O)cc4)CC3)nc3c2CCN(c2cccc4cccc(Cl)c24)C3)C[C@@H]1CC#N` [Compound 139, 2-((S)-1-acryloyl-4-(7-(8-chloronaphthalen-1-yl)-2-(((S)-1-(1-(4-(3-(2,4-dihydroxy-5-isopropylphenyl)-5-hydroxy-4H-1,2,4-triazol-4-yl)benzyl)piperidine-4-carbonyl)pyrrolidin-2-yl)methoxy)-5,6,7,8-tetrahydropyrido[3,4-d]pyrimidin-4-yl)piperazin-2-yl)acetonitrile], at KRAS(G12C) [1], the IC50 is more than 1000 nM. For the same compound, at KRAS(G12C) [2], the inhibition (as a rule, the percentage by which the read-out fell short of the control) at 0.1562 µM was less than 33%; the inhibition at 0.3125 µM was less than 33%; the inhibition at 0.625 µM was less than 33%; the inhibition at 1.25 µM is less than 33%. On KRAS(G12C) [2], this compound gave an inhibition at 2.5 µM of less than 33%, an inhibition at 5 µM of less than 33% and an inhibition at 10 µM of less than 33%. Moreover, the EC50 (usually the concentration at which the effect is half-maximal) in experiment [3] was more than 1000 nM. In addition, the EC50 in experiment [4] lay in the range of 100 to 1000 nM. The compound also yielded an IC50 at HSP90a protein of 100 to 1000 nM.
In experiment [4], `C=C(F)C(=O)N1CCN(c2nc(N3CCN(Cc4ccc(-n5c(O)nnc5-c5cc(CC)c(O)cc5O)cc4)CC3)nc3c2CCN(c2cccc4cccc(Cl)c24)C3)C[C@@H]1CC#N` [Compound 143, (S)-2-(4-(7-(8-chloronaphthalen-1-yl)-2-(4-(4-(3-(5-ethyl-2,4-dihydroxyphenyl)-5-hydroxy-4H-1,2,4-triazol-4-yl)benzyl)piperazin-1-yl)-5,6,7,8-tetrahydropyrido[3,4-d]pyrimidin-4-yl)-1-(2-fluoroacryloyl)piperazin-2-yl)acetonitrile] returned an EC50 of more than 1000 nM. On HSP90a protein, this compound came in with an IC50 of more than 1000 nM.
Turning to `C=C(F)C(=O)N1CCN(c2nc(OC[C@@H]3CCCN3C(=O)C3CCN(Cc4ccc(-n5c(O)nnc5-c5cc(C(C)C)c(O)cc5O)cc4)CC3)nc3c2CCN(c2cccc4cccc(Cl)c24)C3)C[C@@H]1CC#N` [Compound 144, 2-((S)-4-(7-(8-chloronaphthalen-1-yl)-2-(((S)-1-(1-(4-(3-(2,4-dihydroxy-5-isopropylphenyl)-5-hydroxy-4H-1,2,4-triazol-4-yl)benzyl)piperidine-4-carbonyl)pyrrolidin-2-yl)methoxy)-5,6,7,8-tetrahydropyrido[3,4-d]pyrimidin-4-yl)-1-(2-fluoroacryloyl)piperazin-2-yl)acetonitrile], in experiment [4], the EC50 is more than 1000 nM. Further, the IC50 on HSP90a protein lay within 100 to 1000 nM.
Consider `C=C(F)C(=O)N1CCN(c2nc(OC[C@@H]3CCN(C(=O)C4CCN(Cc5ccc(-n6c(O)nnc6-c6cc(C(C)C)c(O)cc6O)cc5)CC4)C3)nc3c2CCN(c2cccc4cccc(Cl)c24)C3)C[C@@H]1CC#N` [Compound 145, 2-((S)-4-(7-(8-chloronaphthalen-1-yl)-2-(((R)-1-(1-(4-(3-(2,4-dihydroxy-5-isopropylphenyl)-5-hydroxy-4H-1,2,4-triazol-4-yl)benzyl)piperidine-4-carbonyl)pyrrolidin-3-yl)methoxy)-5,6,7,8-tetrahydropyrido[3,4-d]pyrimidin-4-yl)-1-(2-fluoroacryloyl)piperazin-2-yl)acetonitrile, acetic acid], for which the EC50 in experiment [3] and in experiment [4] was 100 to 1000 nM in each case. On HSP90a protein, this compound gave an IC50 of 100 to 1000 nM.
Take `CCC(=O)N1CCN(c2nc(OCC3CN(C(=O)C4CCN(Cc5ccc(-n6c(O)nnc6-c6cc(C(C)C)c(O)cc6O)cc5)CC4)C3)nc3c2CCN(c2cccc4cccc(Cl)c24)C3)C[C@@H]1CC#N` [Compound 146, (S)-2-(4-(7-(8-chloronaphthalen-1-yl)-2-((1-(1-(4-(3-(2,4-dihydroxy-5-isopropylphenyl)-5-hydroxy-4H-1,2,4-triazol-4-yl)benzyl)piperidine-4-carbonyl)azetidin-3-yl)methoxy)-5,6,7,8-tetrahydropyrido[3,4-d]pyrimidin-4-yl)-1-propionylpiperazin-2-yl)acetonitrile]: the EC50 in experiment [4] fell in the range of 100 to 1000 nM. The IC50 on HSP90a protein lay in the range of 100 to 1000 nM.
Consider `CCC(=O)N1CCN(c2nc(OCC3CCN(C(=O)C4CCN(Cc5ccc(-n6c(O)nnc6-c6cc(C(C)C)c(O)cc6O)cc5)CC4)CC3)nc3c2CCN(c2cccc4cccc(Cl)c24)C3)C[C@@H]1CC#N` [Compound 147, (S)-2-(4-(7-(8-chloronaphthalen-1-yl)-2-((1-(1-(4-(3-(2,4-dihydroxy-5-isopropylphenyl)-5-hydroxy-4H-1,2,4-triazol-4-yl)benzyl)piperidine-4-carbonyl)piperidin-4-yl)methoxy)-5,6,7,8-tetrahydropyrido[3,4-d]pyrimidin-4-yl)-1-propionylpiperazin-2-yl)acetonitrile], for which the EC50 in experiment [3] and in experiment [4] was 100 to 1000 nM throughout. The compound further showed an IC50 at HSP90a protein of less than 100 nM.
For `CCC(=O)N1CCN(c2nc(NCCC(=O)NCCc3ccc(CN4CCC(Cc5ccc(-n6c(C(=O)NCC(F)(F)F)nnc6-c6cc(C(C)C)c(O)cc6O)cc5)CC4)cc3)nc3c2CCN(c2cc(O)cc4ccccc24)C3)CC1` [Compound 149], the EC50 in experiment [4] fell in the range of 100 to 1000 nM. Besides, on HSP90a protein, the IC50 is 100 to 1000 nM.
`CCC(=O)N1CCN(c2nc(OCCC(=O)NCCc3ccc(CN4CCC(Cc5ccc(-n6c(C(=O)NCC(F)(F)F)nnc6-c6cc(C(C)C)c(O)cc6O)cc5)CC4)cc3)nc3c2CCN(c2cc(O)cc4ccccc24)C3)CC1` [Compound 151, 5-(2,4-dihydroxy-5-isopropylphenyl)-4-(4-((1-(4-(2-(3-((7-(3-hydroxynaphthalen-1-yl)-4-(4-propionylpiperazin-1-yl)-5,6,7,8-tetrahydropyrido[3,4-d]pyrimidin-2-yl)oxy)propanamido)ethyl)benzyl)piperidin-4-yl)methyl)phenyl)-N-(2,2,2-trifluoroethyl)-4H-1,2,4-triazole-3-carboxamide] showed an EC50 in experiment [4] of 100 to 1000 nM. This compound showed an IC50 on HSP90a protein of 100 to 1000 nM.
In turn, `CCC(=O)N1CCN(c2nc(OC[C@@H]3CCN3C(=O)C3CCN(Cc4ccc(-n5c(O)nnc5-c5cc(C(C)C)c(O)cc5O)cc4)CC3)nc3c2CCN(c2cccc4cccc(Cl)c24)C3)C[C@@H]1CC#N` [Compound 152, 2-((S)-4-(7-(8-chloronaphthalen-1-yl)-2-(((S)-1-(1-(4-(3-(2,4-dihydroxy-5-isopropylphenyl)-5-hydroxy-4H-1,2,4-triazol-4-yl)benzyl)piperidine-4-carbonyl)azetidin-2-yl)methoxy)-5,6,7,8-tetrahydropyrido[3,4-d]pyrimidin-4-yl)-1-propionylpiperazin-2-yl)acetonitrile, trifluoroacetic acid] returned an EC50 in experiment [4] of more than 1000 nM. For the same compound, the IC50 at HSP90a protein is less than 100 nM.
Regarding `C=C(F)C(=O)N1CCN(c2nc(OC[C@@H]3CCN(C(=O)C4CCN(Cc5ccc(-n6c(C(=O)NCC(F)(F)F)nnc6-c6cc(C(C)C)c(O)cc6O)cc5)CC4)C3)nc3c2CCN(c2cccc4cccc(Cl)c24)C3)C[C@@H]1CC#N` [Compound 168, 4-(4-((4-((R)-3-(((7-(8-chloronaphthalen-1-yl)-4-((S)-3-(cyanomethyl)-4-(2-fluoroacryloyl)piperazin-1-yl)-5,6,7,8-tetrahydropyrido[3,4-d]pyrimidin-2-yl)oxy)methyl)pyrrolidine-1-carbonyl)piperidin-1-yl)methyl)phenyl)-5-(2,4-dihydroxy-5-isopropylphenyl)-N-(2,2,2-trifluoroethyl)-4H-1,2,4-triazole-3-carboxamide], on KRAS(G12C) [2], the inhibition at 0.1562 µM is less than 33%, the inhibition at 0.3125 µM was less than 33%, the inhibition at 0.625 µM was less than 33% and the inhibition at 1.25 µM lay within 33 to 66%. On KRAS(G12C) [2], this compound registered an inhibition at 2.5 µM of 33 to 66%, an inhibition at 5 µM of 33 to 66% and an inhibition at 10 µM of 33 to 66%. In experiment [3], the EC50 is less than 100 nM. In addition, the IC50 on HSP90a protein was 100 to 1000 nM.
